As a reminder, the EC50 is the concentration at which the effect is half-maximal. A word on the IC50: it is the concentration needed to halve the response being measured.

Consider three compounds from patent US20020013478A1, “Calanolide analogues and methods of their use” (Sarawak Medichem Pharmaceuticals,Inc., priority 1994, published 2002).

The subject of series [1] is pyridinone-resistant A17 virus. To be noted: cited from earlier work.
In another series the test system is HCMV. As to the kind of experiment: HCMV semi-automated CPE-inhibition assay in human foreskin fibroblast cells. It counts as cell-based, human cytomegalovirus. As to conditions: Table II.
A further series deals with EBV. Put plainly: EBV assay: superinfection of Raji or Daudi cells with P3HR-1, immunofluorescence for EA and VCA. It counts as cell-based, Epstein-Barr virus. As to conditions: Table II. From the text:
There are two prototypes of infectious EBV. One is exemplified by the virus derived from supernatant fluids of the P3HR-1cell line. This cell line produces nontransforming virus that causes the production of early antigen (EA) after primary infection or superinfection of B cell lines. The other prototype is exemplified by the B-95-8 virus. This virus immortalized cord blood lymphocytes and induced tumors in marmosets.
The virus used in our assays is P3HR-1.
Ramos is an exceptional B cell line derived from Burkitt's lymphoma tumor but containing no detectable EBV genome copies and is EBNA negative. Ramos/AW was obtained by in vitro infection of Ramos with the P3HR-1 virus and contains one resident EBV genome copy/cell. Raji is a Burkitt's lymphoma cell line containing 60 EBV genomes/cell, and will be the primary cell used for screening antiviral activity against EBV EA expression. Daudi is a low level producer that contains 152 EBV genome copies/cell. It spontaneously expresses EBV EA in 0.25%-0.5% of the cells. It will be used in follow-up studies to confirm activity. These cell lines respond to superinfection by EBV by expressing EA(D), EA(R), and VCA. All cell lines are maintained in RPMI-1640 medium supplemented by 10% FCS, L-glutamine and 100 μg/mL gentamicin. The cultures are fed twice weekly and the cell concentration adjusted to 3×10^5/mL. The cells are kept at 37° C. in a humidified atmosphere with 5% CO2.
Cells are infected with the P3HR-1 strain of EBV and the drugs to be tested are added after adsorption (45 minutes at 37° C.) and washing of the cell cultures. The cultures are incubated for two days in complete medium to allow viral gene expression. Following the 48 hr incubation period, the number of cells of each sample are counted and smears made. Monoclonal antibodies to the different EA components and VCA are then added to the cells incubated and washed. This is followed by a fluorescein conjugated rabbit anti-mouse Ig antibody; and the number of fluorescence positive cells in the smears are counted. The total number of cells in the cultures positive for EA or VCA are then calculated and compared.

Another series has as its system Raji or Daudi cells. Put plainly: Toxicity run with the EBV assay. The class given is cell-based, human. As to conditions: Table II. From the text:
IC50 (50% inhibitory concentration) is the concentration required to inhibit cell proliferation by 50%

A further series deals with G910-6 HIV viral strain. Put plainly: In vitro MTT assay, AZT-resistant isolate (Example 37, FIGS. 1). As to conditions: G910-6 strain, FIGS. 1(a)-1(e). For orientation: Formazan colour is commonly taken as a measure of viable cells.
Another series has as its system HBV. As to the kind of experiment: HBV replication in cultures of 2.2.15 cells, extracellular HBV virion DNA (primary assay). To be noted: read-out: HBV EC50.
The subject of series [2] is human T-lymphoblastic cells (CEM-SS). As to conditions: cited from earlier work.
For series [3], the system named is human foreskin fibroblast cells. As to the kind of experiment: Toxicity run with the HCMV assay, human foreskin fibroblast cells. The class given is cell-based. As to conditions: Table II. Put shortly:
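Human foreskin fibroblasts exposed to drug at 37 °C in CO2, either 72 h followed by Coulter Counter counts (triplicate counts, three replicate wells), or seven days followed by dye staining for 1 h and optical density at 550 nm.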

In another series the test system is 2.2.15 cells. As to the kind of experiment: Toxicity in 2.2.15 cells, neutral red dye uptake. It counts as cell-based, human. As to conditions: Table II, read-out: HBV IC50. How it is done:
Cells of 2.2.15 were grown to confluence in 96-well flat-bottomed tissue culture plates and treated with compounds (in 0.2 mL culture medium/well) as described above. Four concentrations of each compound were assayed, each in triplicate cultures, in 3- to 10-fold steps. Untreated control cultures were maintained on each 96-well plate. On each 96-well plate, wells containing no cells were used to correct for light scattering.

For another series, the system named is HIV-1. As to conditions: cited from earlier work.
The test system of series [4] is AZT-resistant G-9106 strain of HIV. To be noted: cited from earlier work.
Series [5] relates to uninfected cells (MT-2, CEM-SS). Put plainly: MTT cytotoxicity on uninfected cells (Example 37). It counts as cell-based, human.
The subject of the next series is H112-2 HIV viral strain. As to the kind of experiment: In vitro MTT assay, isolate not pre-treated with AZT (Example 37, FIGS. 2). To be noted: H112-2 strain; FIGS. 2(a)-2(e).
Series [6] deals with HCMV isolates Towne, AD169, E. Mann, Coffman, C9208. As to the kind of experiment: Anti-CMV plaque reduction assay against various laboratory and clinical isolates (Example 40). The class given is cell-based, human cytomegalovirus. How it is done:
On the date of assay, the drug is made up at twice the desired concentration in 2x MEM and then serially diluted 1:5 in 2x MEM using six concentrations of drug. The initial starting concentration is usually 200 gg/mL down to 0.06 μg/mL. […] The media is then aspirated from the wells and 0.2 mL of virus is added to each well in duplicate with 0.2 mL of media being added to drug toxicity wells. The plates are then incubated for one hour with shaking every fifteen minutes. […] This will give final drug concentrations beginning with 100 μg/mL and ending with 0.03 μg/mL and a final agarose overlay concentration of 0.5%. The drug agarose mixture is applied to each well in 2 mL volume and the plates then incubated for three days, after which the cells were stained with a 1.5% solution of neutral red. At the end of 4-6hr incubation period, the stain is aspirated, and plaques counted using a stereomicroscope at lOx magnification. The procedure again is nearly the same as for HSV with a few minor changes. […] The assay is incubated for 14 days with the additional 1 mL overlays being applied on days four and eight. The procedure for the liquid overlay plaque assay is similar to that using the agarose overlay. The procedure for adding the virus is the same as for the regular plaque assay. The drugs are made up in a concentration to be used in MEM with 2% FBS. The drugs are not made up at 2x concentration as in the previous assays but are made up at the desired concentration. For HSV-1 and HSV-2 assays, an antibody preparation obtained from Baxter Health Care Corporation is diluted 1:500 and added to the media that the drug is diluted in. For CMV and VZV, no antibody in the overlay is utilized. For the CMV assay, additional medium without new drug is added on day five and allowed to incubate for a total of 10 days. For VZV, additional medium is added on day five and incubated for a total of 10 days. At the end of the incubation period for all of the assays, 2 mL of 1:10 dilution of stock neutral is added to each well incubated for six hours. The liquid is then aspirated off and plaques enumerated using a stereomicroscope. Five calanolide analogues, prepared as described above, were further evaluated for their anti-HCMV activity in plaque reduction assay against various laboratory and clinical isolates (Towne, AD 169, E. Mann, Coffinan, and […]).
(Plaques are areas of infected cells; plaque reduction assays count them against a control.)

Series [7] relates to Human lung carcinoma (A549) cells. Put plainly: Cytotoxicity run with the adenovirus assay. As to conditions: read-out: Others IC50, against adenovirus type-1; Table II footnote h.
In series [8] the test system is human foreskin fibroblast cells. As to the kind of experiment: Toxicity run with the VZV assay, human foreskin fibroblast cells. As to conditions: Table II. It counts as cell-based. How it is done: [table] […] The media from the wells is then aspirated and 2 mL of each drug concentration is then added to each well. The cells are then incubated in a CO2 incubator at 37° C. for 72 h. At the end of this time, the media-drug solution is removed and the cells washed. […] The cell-media mixture is then pipetted up and down vigorously to break up the cell suspension, and 0.2 mL of the mixture is added to 9.8 mL of Isoton III and counted using a Coulter Counter. Each sample is counted three times with three replicate wells per sample. The procedure for plating cells and adding drug is the same as for the MTT Assay. After drug addition, the plates are incubated for seven days in a CO2 incubator at 37° C. […] This is incubated in the CO2 incubator for one hour. The dye is aspirated and the cells are washed using a Nunc Plate Washer. […] The plates are rotated for 15 minutes and the optical densities are read at 550 nm on a plate reader.

A further series relates to VZV. As to the kind of experiment: VZV plaque reduction assay in human foreskin fibroblast cells. It counts as cell-based, varicella zoster virus. To be noted: Table II. How it is done:
Two days prior to use, HFF cells are plated into six-well plates and incubated at 37° C. with 5% CO2 and 90% humidity. On the date of assay, the drug is made up at twice the desired concentration in 2x MEM and then serially diluted 1:5 in 2x MEM using six concentrations of drug. The initial starting concentration is usually 200 gg/mL down to 0.06 μg/mL. The virus to be used is diluted in MEM containing 10% FBS to a desired concentration which will give 20-30 plaques per well. The media is then aspirated from the wells and 0.2 mL of virus is added to each well in duplicate with 0.2 mL of media being added to drug toxicity wells. The plates are then incubated for one hour with shaking every fifteen minutes. After the incubation period, an equal amount of 1% agarose was added to an equal volume of each drug dilution. This will give final drug concentrations beginning with 100 μg/mL and ending with 0.03 μg/mL and a final agarose overlay concentration of 0.5%. The drug agarose mixture is applied to each well in 2 mL volume and the plates then incubated for three days, after which the cells were stained with a 1.5% solution of neutral red. At the end of 4-6hr incubation period, the stain is aspirated, and plaques counted using a stereomicroscope at lOx magnification.
The procedure is essentially the same as for the HSV plaque assay described above with two exceptions:
1. After addition of the drug, the plates are incubated for ten days.
2. On days three and six, an additional 1 mL overlay with equal amounts of 2x MEM and 1% agarose are added.

The next series concerns measles. As to the kind of experiment: Measles virus inhibition of viral CPE in BSC-1 cells. The class given is cell-based. As to conditions: Table II footnote g.
Series [9] deals with human foreskin fibroblast cells. Put plainly: Cell viability in the CMV plaque reduction assay (MTC). The class given is cell-based. From the text:
Five calanolide analogues, prepared as described above, were further evaluated for their anti-HCMV activity in plaque reduction assay against various laboratory and clinical isolates (Towne, AD 169, E. Mann, Coffinan, and C9208).

Converted amounts (≈) assume the structure as drawn. Read-outs that look alike come from different tables or passages of the source.

`CCCc1cc(=O)oc2c3c(c4c(c12)OC(C)(C)C=C4)O[C@H](C)[C@@H](C)[C@@H]3O` [(+)-1, (+)-Calanolide A]: in series [1], the “activity against pyridinone-resistant A17 virus” value is “active”. The EC50 is more than 20 µg/mL with HCMV (Human betaherpesvirus 5, Fibroblast); more than 50 µg/mL in the series with EBV (human gammaherpesvirus 4); more than 2.6 µM with HBV (Hepatitis B virus); 0.1 µM with HIV-1 (HIV-1 replication in CEM-SS cells). Further, the IC50 in the series with Raji or Daudi cells (Homo sapiens) is more than 50 µg/mL; in [2], 20 µM; in series [3] (Homo sapiens, Fibroblast), 86.2 µg/mL (≈ 233 µM); in the series with 2.2.15 cells (Homo sapiens), 175 µM. In addition, the “antiviral effect (reducing viral CPE)” value with G910-6 HIV viral strain is reported as “effective in reducing viral CPE”. The “protection against the cytopathic effects of HIV-1” value in the series on HIV-1 (down to a concentration of 0.1 μM) is given as 100%. In addition, the “activity against AZT-resistant G-9106 strain of HIV” value in [4] is recorded as “active”.
Regarding `CCCc1cc(=O)oc2c3c(c4c(c12)OC(C)(C)C=C4)O[C@@H](C)[C@H](C)[C@H]3O` [(−)-1, (-)-Calanolide A], in the series with HCMV, the “HCMV EC50” value was more than 20 µg/mL. In addition, the toxicity entry is “relatively non-toxic” in series [5] (FIGS. 2(a)-2(e)) and “relatively non-toxic” in series [5] (at concentrations of 1 μg/mL, FIGS. 1(a)-1(e)). The “antiviral effect (reducing viral CPE)” value in the series on H112-2 HIV viral strain and with G910-6 HIV viral strain was “very little antiviral effect” in each case. In addition, the “EBV EC50” value in the series on EBV was more than 100 µg/mL. The “EBV IC50” value in the series on Raji or Daudi cells is more than 100 µg/mL. For the same compound, the EC50 in the series on HBV (Table II) was more than 30 µM. In addition, in series [3], the “HCMV IC50” value came out at 80.3 µg/mL. Further, the IC50 with 2.2.15 cells came out at 173 µM.
For the compound `CCCc1cc(=O)oc2c3c(c4c(c12)OC(C)(C)CC4)OC(C)C(C)C3O` (single isomer, unassigned; (-)) [(−)-23], the EC50 stood at 3.16 µM in series [6] (isolate AD169); 2.99 µM in [6] (isolate C9208); 3.16 µM in series [6] (isolate Coffman); 3.16 µM in series [6] (isolate E. Mann); 3.16 µM in series [6] (isolate Towne); 3.5 µM in the series on HBV (Table II). Further, the IC50 in series [7] is more than 100 µM; in the series with 2.2.15 cells, 340 µM. Further, in series [8], the “VZV IC50” value stood at 16.0 µg/mL. The “HCMV EC50” value in the series with HCMV is more than 4.0 µg/mL. The “VZV EC50” value in the series with VZV is more than 4.0 µg/mL. In addition, in the series on measles, the “Others EC50, against measles” value is on record as 20^g μM. Besides, the “MTC (minimum drug concentration that reduced cell viability by 25%)” value in [9] (isolate AD169) is 10 µM; in series [9] (isolate C9208), 10 µM; in [9] (isolate Coffman), less than 100 µM; in series [9] (isolate E. Mann), 10 µM; in series [9] (isolate Towne), 10 µM. Also, the “HCMV IC50” value in series [3] came to 18.8 µg/mL.
